According to patent EP0679081B1, “PHARMACEUTICAL COMPOSITIONS FOR PREVENTION AND TREATMENT OF CANCEROUS DISEASE AND PROCESS FOR THEIR PREPARATION” (priority 1993, dated 1995):

System: Sp2/0-Ag14 mouse myeloma cells
Assay: Effect on number of viable Sp2/0-Ag14 cells in culture (trypan blue dye exclusion count)
Settings: for number of cells as compared to the number of untreated cells: substance used alone, statement in words
Method: In the experiments the newest methods approved by the scientific literature were used. In case of Sp2/0-Ag14 and K562 lines, the logarithmically growing cells were harvested from the medium and resuspended in a 96-well plate used for cell culture to a final concentration of 4x10^4 Sp2/0-Ag14 cells and 2x10^4 K562 cells, respectively, in 250 µl appropriate medium per well containing the tested materials in the indicated concentrations. In case of HeLa, HEp-2 and Vero cells, the cultured cells were harvested from 75 % confluent tissue culture flasks with 0.2 % trypsin and resuspended in the appropriate medium at a density of 10^5 cells/ml. Aliquots (100 µl) were dispensed into 96-well micro plates and incubated for 24 hours. Then the medium was discarded and replaced with 250 µl fresh medium containing the tested compounds in the indicated concentrations. All kinds of cells were allowed to proliferate for 48 hours. The number of viable Sp2/0-Ag14 and K562 cells was then counted microscopically with the trypan blue dye exclusion method. The survival of HeLa, HEp-2 and Vero cells was measured by assessing the endogenous alkaline phosphatase activity of the cells. Results were evaluated using Student's t-test. Data after the mean values in the Tables and signs in the Figures mean: "standard error of mean" (SEM).
In case of L-tryptophan for example the 2-4th control experiments show the effects of 0.002; 0.006; and 0.01 % by mass, resp., of L-tryptophan alone on the number of cells.
In Table 2 the amounts of materials expressed in % by mass and multiplied by 1000 are shown, thus the numbers in the Table should read by multiplying with 10^-3; for example in Example 21 in case of L-tryptophan the number 6 means 6 x 10^-3, that is 0.006 % by mass. The conditions of the experiments were the same as before.
To help the comparability with the earlier results Sp2/0-Ag14 cells were also used and the experimental conditions were the same as before. On the vertical axis the changes of the amounts of cells expressed in the percentage of the amounts of untreated cells are shown. On the horizontal axis the changes expressed in % of the compositions (changes of the amounts of the active ingredients) are shown. […] Thus, the 80 % composition of Example 99 contains every component in an amount of 80 %.
The composition of the control mixtures was given in connection with Table 1.
As a function of time the effect of the 100 % composition of Example 103 on Sp2/0-Ag14 cells was investigated and compared to the 100 % control mixture and to untreated cells. The experimental conditions were the same as in the previous experiments except that in this case the cells were counted not only after 48 hr but also after 6; 12; 24; and 36 hr. On the vertical axis the cell number/ml is shown. On the horizontal axis the time is shown in hours.

[1] = Table 1, number of cells after 48 hr incubation, mean ± SEM, untreated cells 59.1 ±3.2
[2] = Table 2 (first part), 48 hr, untreated cells = 100 %, mean ± SEM
[3] = Table 2 (first part), number of cells after 48 hr, mean ± SEM, untreated cells 74.3 ± 3.9
[4] = Table 2 (second part), number of cells after 48 hr, mean ± SEM, untreated cells 74.3 ± 3.9

Row | Compound | CHANGE OF THE NUMBER OF CELLS (x 10^4) [1] | IN% OF THE UNTREATED CELLS (mouse, sp2/0-ag14 cells, 48 h) [%] | IN % OF THE UN-TREATED CELLS (mouse, sp2/0-ag14 cells, 48 h) [%] | other results
1 | N[C@@H](Cc1c[nH]c2ccccc12)C(=O)O [Control 2, L-tryptophan] | 61.7±3.0 x 10^4 | 104.4±5.0 |  | 
2 | N[C@@H](Cc1c[nH]c2ccccc12)C(=O)O [Control 3, L-tryptophan] | 62.6±2.0 x 10^4 | 106.0±3.4 |  | 
3 | N[C@@H](Cc1c[nH]c2ccccc12)C(=O)O [Control 4, L-tryptophan] | 63.0±3.4 x 10^4 | 106.6±5.8 |  | 
4 | O=CC[C@H](O)[C@H](O)CO [Control 6, 2-deoxy-D-ribose] | 59.3±2.3 x 10^4 |  |  | 
5 | O=CC[C@H](O)[C@H](O)CO [Control 7, 2-deoxy-D-ribose] | 59.8±1.2 x 10^4 | 101.1±2.2 |  | 
6 | O=CC[C@H](O)[C@H](O)CO [Control 8, 2-deoxy-D-ribose] | 59.0 ±3.2 x 10^4 | 99.9 ±5.9 |  | 
7 | Nc1ncnc2nc[nH]c12 [Control 10, adenine] | 60.5±1.4 x 10^4 | 102.4±2.5 |  | 
8 | Nc1ncnc2nc[nH]c12 [Control 11, adenine] | 58.2 ±1.8 x 10^4 | 98.5 ±3.2 |  | 
9 | Nc1ncnc2nc[nH]c12 [Control 12, adenine] | 58.6 ± 1.5 x 10^4 | 99.1 ± 2.8 |  | 
10 | O=C(O)CC(O)C(=O)O (stereo not shown) [Control 14, malic acid] | 58.7 ± 2.1 x 10^4 | 99.3±3.7 |  | 
11 | O=C(O)CC(O)C(=O)O (stereo not shown) [Control 15, malic acid] | 60.4 ± 1.7 x 10^4 | 102.2 ± 3.0 |  | 
12 | O=C(O)CC(O)C(=O)O (stereo not shown) [Control 16, malic acid] | 58.8±2.5 x 10^4 | 99.5±4.5 |  | 
13 | O=C1O[C@H]([C@@H](O)CO)C(O)=C1O [Control 18, L-ascorbic acid] | 58.2±1.4 x 10^4 | 98.5 ±2.5 |  | 
14 | O=C1O[C@H]([C@@H](O)CO)C(O)=C1O [Control 19, L-ascorbic acid] | 56.7±2.1 x 10^4 | 96.0±3.7 |  | 
15 | O=C1O[C@H]([C@@H](O)CO)C(O)=C1O [Control 20, L-ascorbic acid] | 56.3 ±2.6 x 10^4 | 95.2 ±4.8 |  | 
16 | N[C@@H](Cc1ccccc1)C(=O)O [Control 22, L-phenylalanine] |  |  |  | IN % OF THE UN-TREATED CELLS [2]: 109.4 ± 4.0%; CHANGE OF THE NUMBER OF CELLS (x 10^4) [3]: 81.3 ± 3.0 x 10^4; number of cells as compared to the number of untreated cells (48 hr): slightly increased
17 | N=C(N)NCCC[C@H](N)C(=O)O [Control 23, L-arginine] |  |  |  | IN % OF THE UN-TREATED CELLS [2]: 103.4 ± 1.8%; CHANGE OF THE NUMBER OF CELLS (x 10^4) [3]: 76.8 ± 1.3 x 10^4; number of cells as compared to the number of untreated cells (48 hr): slightly increased
18 | N[C@@H](Cc1c[nH]cn1)C(=O)O [Control 24, L-histidine] |  |  | 108.7 ± 2.7 | CHANGE OF THE NUMBER OF CELLS (x 10^4) [3]: 80.7 ± 2.0 x 10^4; number of cells as compared to the number of untreated cells (48 hr): slightly increased
19 | O=C(O)CCCC[C@@H]1SC[C@@H]2NC(=O)N[C@@H]21 [Control 25, d-biotin] |  |  | 99.9 ± 3.1 | CHANGE OF THE NUMBER OF CELLS (x 10^4) [3]: 74.2 ± 2.3 x 10^4
20 | Cc1ncc(CO)c(CO)c1O [Control 26, pyridoxine] |  |  | 91.0 ± 2.1 | CHANGE OF THE NUMBER OF CELLS (x 10^4) [3]: 67.6 ± 1.6 x 10^4
21 | CSCC[C@H](N)C(=O)O [Control 27, L-methionine] |  |  | 98.7 ± 3.6 | CHANGE OF THE NUMBER OF CELLS (x 10^4) [3]: 73.3 ± 2.7 x 10^4
22 | N[C@@H](Cc1ccc(O)cc1)C(=O)O [Control 28, L-tyrosine] |  |  |  | IN % OF THE UN-TREATED CELLS [2]: 94.9 ± 1.5%; CHANGE OF THE NUMBER OF CELLS (x 10^4) [3]: 70.5 ± 1.1 x 10^4
23 | Cc1cc2nc3c(=O)[nH]c(=O)nc-3n(C[C@H](O)[C@H](O)[C@H](O)CO)c2cc1C [Control 29, riboflavin] |  |  | 103.5 ± 2.2 | CHANGE OF THE NUMBER OF CELLS (x 10^4) [3]: 76.9 ± 1.7 x 10^4; number of cells as compared to the number of untreated cells (48 hr): slightly increased
24 | O=C[C@@H](O)[C@@H](O)[C@H](O)[C@H](O)CO [Control 30, D-mannose] |  |  | 98.4 ± 1.5 | CHANGE OF THE NUMBER OF CELLS (x 10^4) [4]: 73.1 ± 1.1 x 10^4
25 | O=C(O)CNC(=O)c1ccccc1 [Control 31, N-benzoylglycine] |  |  | 99.8 ± 2.1 | CHANGE OF THE NUMBER OF CELLS (x 10^4) [4]: 74.2 ± 1.6 x 10^4
26 | Cc1cc2nc3c(=O)[nH]c(=O)nc-3n(C[C@H](O)[C@H](O)[C@H](O)COP(=O)(O)O)c2cc1C [Control 32, riboflavin-5'-phosphate] |  |  | 98.9 ± 1.8 | CHANGE OF THE NUMBER OF CELLS (x 10^4) [4]: 73.5 ± 1.3 x 10^4
27 | O=C(O)c1cc(=O)[nH]c(=O)[nH]1 [Control 33, orotic acid] |  |  | 94.2 ± 1.7 | CHANGE OF THE NUMBER OF CELLS (x 10^4) [4]: 70.0 ± 1.3 x 10^4
28 | N[C@@H](Cc1c[nH]c2ccccc12)C(=O)O [L-tryptophan] |  |  |  | number of cells as compared to the number of untreated cells (48 hr): increased slightly
